Laboratory results as given in patent publication US9040506B2, “7,11-methanocycloocta [B] quinoline derivative as highly functionalizable acetylcholinesterase inhibitors” (priority 2010, dated 2015).
Counter-ions that a name gives are not always drawn. Like-named read-outs stand apart in the source and are kept apart here.

How the values were obtained:
rh-AChE = rh-AChE (Homo sapiens, UniProt P22303); test: biochemical; settings: read-out: IC50 rh-AChE
erythrocyte h-AChE = biological target: T1, erythrocyte h-AChE (Homo sapiens, UniProt P22303); test: IC50 erythrocyte h-AChE; type: biochemical
T1 construct: from tissue; host or cells: human erythrocytes
T1 sequence (P22303 32-617 isoform P22303-2 limits assumed): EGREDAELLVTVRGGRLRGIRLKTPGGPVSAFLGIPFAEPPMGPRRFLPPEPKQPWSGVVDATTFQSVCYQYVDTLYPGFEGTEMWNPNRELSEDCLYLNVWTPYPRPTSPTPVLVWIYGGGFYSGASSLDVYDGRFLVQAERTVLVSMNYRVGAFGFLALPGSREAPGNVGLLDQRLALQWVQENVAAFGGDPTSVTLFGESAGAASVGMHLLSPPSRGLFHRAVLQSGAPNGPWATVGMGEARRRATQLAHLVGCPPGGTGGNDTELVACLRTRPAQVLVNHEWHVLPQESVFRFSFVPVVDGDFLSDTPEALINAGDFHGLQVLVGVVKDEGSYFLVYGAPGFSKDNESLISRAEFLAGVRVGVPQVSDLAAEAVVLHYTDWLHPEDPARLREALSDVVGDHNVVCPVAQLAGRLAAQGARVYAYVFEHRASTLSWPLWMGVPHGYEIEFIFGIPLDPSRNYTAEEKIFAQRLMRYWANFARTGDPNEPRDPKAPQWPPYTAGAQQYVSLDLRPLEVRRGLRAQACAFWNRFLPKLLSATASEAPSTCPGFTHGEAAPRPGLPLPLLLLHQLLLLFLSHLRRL

rh-BuChE = rh-BuChE (Homo sapiens, UniProt P06276); test: IC50 rh-BuChE; type: biochemical
rh-BuChE, sequence (P06276 29-602): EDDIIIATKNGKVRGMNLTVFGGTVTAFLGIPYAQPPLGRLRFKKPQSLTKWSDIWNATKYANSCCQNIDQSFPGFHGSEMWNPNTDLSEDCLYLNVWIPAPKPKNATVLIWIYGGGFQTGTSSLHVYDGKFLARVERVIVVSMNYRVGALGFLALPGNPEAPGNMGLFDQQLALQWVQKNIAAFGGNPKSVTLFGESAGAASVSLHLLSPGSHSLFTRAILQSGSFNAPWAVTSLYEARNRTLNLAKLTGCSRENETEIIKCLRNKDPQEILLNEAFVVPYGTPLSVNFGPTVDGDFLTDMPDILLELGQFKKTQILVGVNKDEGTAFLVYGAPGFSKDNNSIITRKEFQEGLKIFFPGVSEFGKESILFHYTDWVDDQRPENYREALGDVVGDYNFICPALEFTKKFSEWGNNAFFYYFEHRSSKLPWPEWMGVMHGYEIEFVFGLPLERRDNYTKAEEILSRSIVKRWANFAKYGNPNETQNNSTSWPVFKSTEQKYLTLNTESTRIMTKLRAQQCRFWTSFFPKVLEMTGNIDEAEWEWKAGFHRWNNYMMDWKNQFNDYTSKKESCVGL

[1] = read-out: IC50 erythrocyte h-AChE

rh-AChE, sequence (P22303 32-614): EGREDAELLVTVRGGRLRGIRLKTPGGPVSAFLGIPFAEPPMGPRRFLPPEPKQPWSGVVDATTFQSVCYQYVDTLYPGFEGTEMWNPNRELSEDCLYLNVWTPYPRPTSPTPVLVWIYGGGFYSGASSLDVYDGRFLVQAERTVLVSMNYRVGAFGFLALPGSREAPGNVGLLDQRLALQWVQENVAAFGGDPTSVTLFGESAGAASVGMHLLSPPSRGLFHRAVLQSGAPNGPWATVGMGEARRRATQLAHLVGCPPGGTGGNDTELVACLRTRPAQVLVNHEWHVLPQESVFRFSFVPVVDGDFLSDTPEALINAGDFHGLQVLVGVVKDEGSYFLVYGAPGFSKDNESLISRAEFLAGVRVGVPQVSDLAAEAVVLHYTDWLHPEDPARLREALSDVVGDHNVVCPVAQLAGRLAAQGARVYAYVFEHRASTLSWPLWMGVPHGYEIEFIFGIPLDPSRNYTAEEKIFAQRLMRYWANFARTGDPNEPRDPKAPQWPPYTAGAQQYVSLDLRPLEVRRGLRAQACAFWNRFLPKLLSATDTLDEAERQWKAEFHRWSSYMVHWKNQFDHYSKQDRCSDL

Compound	IC50 (rh-AChE) [µM]	IC50 (erythrocyte h-AChE; [1]) [µM]	IC50 (rh-BuChE; read-out: IC50 rh-BuChE) [µM]	IC50 (rh-BuChE) [µM]	IC50 (erythrocyte h-AChE) [µM]
Nc1c2c(nc3cc(Cl)ccc13)CC1C=C(CCCCn3cc(COC(=O)C(F)(F)F)nn3)CC2C1 (stereo not drawn) [HUP 35, {1-[4-(12-Amino-3-chloro-6,7,10,11-tetrahydro-7,11-methanocycloocta[b]quinolin-9-yl)butyl]-1H-1,2,3-triazol-4-yl}methyl Trifluoroacetate]	0.0346 ± 0.0026	0.0698	–	–	–
CCOC(=O)CC1=CC2Cc3nc4cc(Cl)ccc4c(N)c3C(C1)C2 (stereo not drawn) [HUP 1, Ethyl (12-Amino-3-chloro-6,7,10,11-tetrahydro-7,11-methanocycloocta[b]quinolin-9-yl)acetate]	0.0039 ± 0.0005	0.0383	0.137 ± 0.011	–	–
CC(=O)OCCC1=CC2Cc3nc4cc(Cl)ccc4c(N)c3C(C1)C2 (stereo not drawn) [HUP 4, 2-(12-Amino-3-chloro-6,7,10,11-tetrahydro-7,11-methanocycloocta[b]quinolin-9-yl)ethyl Acetate]	0.00144 ± 0.00018	0.012	–	–	–
Nc1c2c(nc3cc(Cl)ccc13)CC1C=C(CCCCO)CC2C1 (stereo not drawn) [HUP 30, 4-(12-Amino-3-chloro-6,7,10,11-tetrahydro-7,11-methanocycloocta[b]quinolin-9-yl)butan-1-ol]	0.0224 ± 0.0015	0.0501	0.343 ± 0.043	–	–
[N-]=[N+]=NCCCCC1=CC2Cc3nc4cc(Cl)ccc4c(N)c3C(C1)C2 (stereo not drawn) [HUP 32, 9-(4-Azidobutyl)-3-chloro-6,7,10,11-tetrahydro-7,11-methanocycloocta[b]quinolin-12-amine]	0.0131 ± 0.0047	0.0681	0.26 ± 0.012	–	–
COCCC1=CC2Cc3nc4cc(Cl)ccc4c(N)c3C(C1)C2 (stereo not drawn) [HUP 6, 3-Chloro-9-(2-methoxyethyl)-6,7,10,11-tetrahydro-7,11-methanocycloocta[b]quinolin-12-amine]	0.00175 ± 0.00021	0.0045	0.401 ± 0.026	–	–
Nc1c2c(nc3cc(Cl)ccc13)CC1C=C(CCCl)CC2C1 (stereo not drawn) [HUP 9, 3-Chloro-9-(2-chloroethyl)-6,7,10,11-tetrahydro-7,11-methanocycloocta[b]quinolin-12-amine Trifluoroacetic Acid]	0.00356 ± 0.0002	0.00509	0.207 ± 0.012	–	–
C=CC1=CC2Cc3nc4cc(Cl)ccc4c(N)c3C(C1)C2 (stereo not drawn) [HUP 3, 3-Chloro-9-vinyl-6,7,10,11-tetrahydro-7,11-methanocycloocta[b]quinolin-12-amine Trifluoroacetic Acid]	0.00132 ± 0.00017	0.405	0.18 ± 0.013	–	–
Nc1c2c(nc3cc(Cl)ccc13)CC1C=C(CCOC(=O)C(F)(F)F)CC2C1 (stereo not drawn) [HUP 5, 2-(12-Amino-3-chloro-6,7,10,11-tetrahydro-7,11-methanocycloocta[b]quinolin-9-yl)ethyl Trifluoroacetate]	0.00169 ± 0.00016	0.0275	1.36	–	–
Nc1c2c(nc3cc(Cl)ccc13)CC1C=C(CCC(CO)CO)CC2C1 (stereo not drawn) [HUP 28, 2-[2-(12-Amino-3-chloro-6,7,10,11-tetrahydro-7,11-methanocycloocta[b]quinolin-9-yl)ethyl]propane-1,3-diol Trifluoroactic Acid]	0.0247 ± 0.0012	0.0402	–	–	–
COC(=O)c1cn(CCCCC2=CC3Cc4nc5cc(Cl)ccc5c(N)c4C(C2)C3)nn1 (stereo not drawn) [HUP 33, Methyl 1-[4-(12-Amino-3-chloro-6,7,10,11-tetrahydro-7,11-methanocycloocta[b]quinolin-9-yl)butyl]-1H-1,2,3-triazole-4-carboxylate]	0.00034 ± 0.00012	0.0107	0.291 ± 0.025	–	–
Nc1c2c(nc3cc(Cl)ccc13)CC1C=C(CCCCn3cc(CO)nn3)CC2C1 (stereo not drawn) [HUP 34, {1-[4-(12-Amino-3-chloro-6,7,10,11-tetrahydro-7,11-methanocycloocta[b]quinolin-9-yl)butyl]-1H-1,2,3-triazol-4-yl}methanol Trifluoroacetic Acid]	0.00026 ± 8e-05	0.00691	0.213 ± 0.018	–	–
COC(=O)CCCC1=CC2Cc3nc4cc(Cl)ccc4c(N)c3C(C1)C2 (stereo not drawn) [HUP 29, Methyl 4-(12-Amino-3-chloro-6,7,10,11-tetrahydro-7,11-methanocycloocta[b]quinolin-9-yl)butanoate]	0.0146 ± 0.0017	–	–	0.124 ± 0.011	0.0376
